Experimental data from US6608086B2, “Dihydropyridines and new uses thereof” (Synaptic Pharmaceutical Corporation, priority 1993, dated 2003).
Where a name gives a salt, the structure may show the parent alone. Read-outs that look alike come from different tables or passages of the source.

Columns and labels:
[1] = biological target: T1, α1A Human Adrenergic Receptor (Homo sapiens, UniProt P25100); experiment: Radioligand binding, [3H]prazosin, cloned human α1A adrenergic receptor
T1 construct: The entire coding region of α1A (1719 bp); expressed in transfected cells
T1 sequence (P25100 1-572): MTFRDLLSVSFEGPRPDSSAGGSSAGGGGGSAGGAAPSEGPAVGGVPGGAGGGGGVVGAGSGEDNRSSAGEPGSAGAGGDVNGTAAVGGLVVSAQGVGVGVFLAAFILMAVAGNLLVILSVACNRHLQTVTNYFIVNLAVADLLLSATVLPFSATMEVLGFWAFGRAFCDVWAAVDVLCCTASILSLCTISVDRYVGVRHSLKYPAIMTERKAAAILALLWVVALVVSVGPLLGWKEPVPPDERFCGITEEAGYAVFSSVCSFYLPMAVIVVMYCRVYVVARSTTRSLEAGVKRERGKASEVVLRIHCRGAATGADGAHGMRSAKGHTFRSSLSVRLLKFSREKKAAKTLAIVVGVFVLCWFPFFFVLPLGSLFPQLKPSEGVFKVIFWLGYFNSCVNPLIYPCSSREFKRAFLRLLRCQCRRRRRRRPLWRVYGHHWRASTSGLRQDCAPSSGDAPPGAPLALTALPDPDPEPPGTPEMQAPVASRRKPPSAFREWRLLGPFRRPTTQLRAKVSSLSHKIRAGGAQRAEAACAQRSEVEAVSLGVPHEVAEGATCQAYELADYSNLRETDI
Outline: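 Filter-bound radioactivity measured [3H]prazosin (0.5 nM) binding to membranes of LM(tk−) cells expressing the human α1A receptor after 20 min at 37° C. Phentolamine at 10 μM set nonspecific binding.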

L-type calcium channel = biological target: T2, L-type calcium channel (Rattus norvegicus, UniProt P22002); experiment: Competition binding of [3H]nitrendipine to membrane fragments of rat cardiac muscle
T2 construct: membrane fragments of rat cardiac muscle; from tissue; host or cells: rat cardiac muscle membranes
T2 sequence (P22002 whole entry, other chains not shown, the tested form may be a part): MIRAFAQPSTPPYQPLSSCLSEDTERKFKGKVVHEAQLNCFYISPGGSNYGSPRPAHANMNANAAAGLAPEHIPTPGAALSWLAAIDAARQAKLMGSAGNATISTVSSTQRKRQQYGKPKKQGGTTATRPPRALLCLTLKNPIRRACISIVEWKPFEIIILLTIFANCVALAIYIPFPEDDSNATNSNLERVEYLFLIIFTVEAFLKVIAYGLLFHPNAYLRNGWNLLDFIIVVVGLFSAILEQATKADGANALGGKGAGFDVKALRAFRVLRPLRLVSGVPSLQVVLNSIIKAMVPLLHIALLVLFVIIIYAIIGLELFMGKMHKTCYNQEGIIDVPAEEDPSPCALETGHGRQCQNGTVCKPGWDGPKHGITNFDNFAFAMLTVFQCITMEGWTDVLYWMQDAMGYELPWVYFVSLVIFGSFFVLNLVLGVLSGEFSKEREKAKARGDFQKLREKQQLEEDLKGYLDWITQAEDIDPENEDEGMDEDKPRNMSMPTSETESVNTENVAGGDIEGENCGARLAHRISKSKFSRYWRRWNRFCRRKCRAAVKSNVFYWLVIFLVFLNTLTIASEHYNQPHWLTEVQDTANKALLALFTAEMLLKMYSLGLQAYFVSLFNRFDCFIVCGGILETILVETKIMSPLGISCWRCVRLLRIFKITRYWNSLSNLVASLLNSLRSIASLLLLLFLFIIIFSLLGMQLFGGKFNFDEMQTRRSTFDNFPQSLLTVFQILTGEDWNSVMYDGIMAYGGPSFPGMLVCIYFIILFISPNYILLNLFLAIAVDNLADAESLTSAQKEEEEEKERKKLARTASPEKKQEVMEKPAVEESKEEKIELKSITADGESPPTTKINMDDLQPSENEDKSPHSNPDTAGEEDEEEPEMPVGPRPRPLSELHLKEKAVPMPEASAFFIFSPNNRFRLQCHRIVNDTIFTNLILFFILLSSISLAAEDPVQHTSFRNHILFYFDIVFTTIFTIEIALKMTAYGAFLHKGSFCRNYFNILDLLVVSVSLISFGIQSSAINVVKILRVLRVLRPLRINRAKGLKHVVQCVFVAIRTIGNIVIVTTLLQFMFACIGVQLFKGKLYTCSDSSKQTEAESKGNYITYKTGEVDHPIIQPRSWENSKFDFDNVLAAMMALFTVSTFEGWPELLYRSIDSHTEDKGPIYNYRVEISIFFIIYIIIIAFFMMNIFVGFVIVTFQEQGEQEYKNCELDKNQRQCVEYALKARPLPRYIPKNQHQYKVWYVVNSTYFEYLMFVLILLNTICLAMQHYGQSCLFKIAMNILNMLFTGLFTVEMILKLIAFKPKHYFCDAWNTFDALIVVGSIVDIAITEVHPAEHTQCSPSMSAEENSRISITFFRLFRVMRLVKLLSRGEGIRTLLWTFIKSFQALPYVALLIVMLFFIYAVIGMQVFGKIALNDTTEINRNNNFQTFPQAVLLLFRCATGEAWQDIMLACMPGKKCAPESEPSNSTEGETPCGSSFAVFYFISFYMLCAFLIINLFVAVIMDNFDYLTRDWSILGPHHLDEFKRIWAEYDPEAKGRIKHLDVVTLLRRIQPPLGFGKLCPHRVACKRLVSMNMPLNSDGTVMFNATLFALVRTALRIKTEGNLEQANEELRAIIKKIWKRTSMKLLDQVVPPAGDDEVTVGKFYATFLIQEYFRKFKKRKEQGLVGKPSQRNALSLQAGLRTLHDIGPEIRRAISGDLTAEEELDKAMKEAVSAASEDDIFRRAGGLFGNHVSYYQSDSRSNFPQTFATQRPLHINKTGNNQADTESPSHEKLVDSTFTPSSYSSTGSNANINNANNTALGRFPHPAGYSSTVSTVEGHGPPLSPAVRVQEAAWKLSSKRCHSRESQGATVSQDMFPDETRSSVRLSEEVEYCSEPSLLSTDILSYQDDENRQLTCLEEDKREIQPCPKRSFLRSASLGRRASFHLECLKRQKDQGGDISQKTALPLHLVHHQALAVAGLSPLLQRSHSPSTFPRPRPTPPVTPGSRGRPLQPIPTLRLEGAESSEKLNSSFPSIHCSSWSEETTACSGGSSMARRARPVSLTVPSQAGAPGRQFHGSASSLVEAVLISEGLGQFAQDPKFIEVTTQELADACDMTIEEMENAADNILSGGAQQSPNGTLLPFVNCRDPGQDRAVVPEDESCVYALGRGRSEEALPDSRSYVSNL
T2 sequence (P54290 25-944 partner limits assumed, other chains not shown): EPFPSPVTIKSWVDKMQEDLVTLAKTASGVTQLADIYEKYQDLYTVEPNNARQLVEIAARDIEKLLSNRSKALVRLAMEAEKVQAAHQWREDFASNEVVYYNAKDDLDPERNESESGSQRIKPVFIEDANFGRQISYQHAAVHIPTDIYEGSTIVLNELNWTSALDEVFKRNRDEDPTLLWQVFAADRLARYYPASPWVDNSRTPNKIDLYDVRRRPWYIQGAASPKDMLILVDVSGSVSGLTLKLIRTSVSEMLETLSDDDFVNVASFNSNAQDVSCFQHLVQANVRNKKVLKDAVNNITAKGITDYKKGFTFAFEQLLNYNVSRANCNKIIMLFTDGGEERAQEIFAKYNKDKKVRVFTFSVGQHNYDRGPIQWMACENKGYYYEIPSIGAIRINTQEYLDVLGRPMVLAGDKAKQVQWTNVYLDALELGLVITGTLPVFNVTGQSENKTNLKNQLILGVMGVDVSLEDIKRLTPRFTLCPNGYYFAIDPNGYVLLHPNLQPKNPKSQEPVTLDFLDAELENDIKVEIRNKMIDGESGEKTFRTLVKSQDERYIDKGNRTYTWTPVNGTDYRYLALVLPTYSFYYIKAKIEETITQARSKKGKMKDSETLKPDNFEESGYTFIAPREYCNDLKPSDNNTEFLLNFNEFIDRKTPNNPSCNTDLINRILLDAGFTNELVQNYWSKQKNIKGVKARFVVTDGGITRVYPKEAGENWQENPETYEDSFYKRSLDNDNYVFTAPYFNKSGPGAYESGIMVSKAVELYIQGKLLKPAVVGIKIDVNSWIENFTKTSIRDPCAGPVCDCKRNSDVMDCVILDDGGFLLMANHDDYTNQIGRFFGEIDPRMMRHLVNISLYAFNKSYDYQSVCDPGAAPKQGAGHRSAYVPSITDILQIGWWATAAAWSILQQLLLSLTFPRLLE
T2 sequence (P54290 945-1091 partner limits assumed, other chains not shown): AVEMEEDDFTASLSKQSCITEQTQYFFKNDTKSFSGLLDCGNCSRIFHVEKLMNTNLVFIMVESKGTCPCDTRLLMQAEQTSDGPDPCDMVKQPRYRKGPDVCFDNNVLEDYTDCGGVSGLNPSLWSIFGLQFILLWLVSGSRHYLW

α2C receptor = biological target: T3, α2C receptor (Homo sapiens, UniProt P18825); experiment: Competition binding, [3H]rauwolscine, human α2C receptor
T3 construct: host or cells: LM(tk-) cells, line L-α2C
T3 sequence (P18825 1-462): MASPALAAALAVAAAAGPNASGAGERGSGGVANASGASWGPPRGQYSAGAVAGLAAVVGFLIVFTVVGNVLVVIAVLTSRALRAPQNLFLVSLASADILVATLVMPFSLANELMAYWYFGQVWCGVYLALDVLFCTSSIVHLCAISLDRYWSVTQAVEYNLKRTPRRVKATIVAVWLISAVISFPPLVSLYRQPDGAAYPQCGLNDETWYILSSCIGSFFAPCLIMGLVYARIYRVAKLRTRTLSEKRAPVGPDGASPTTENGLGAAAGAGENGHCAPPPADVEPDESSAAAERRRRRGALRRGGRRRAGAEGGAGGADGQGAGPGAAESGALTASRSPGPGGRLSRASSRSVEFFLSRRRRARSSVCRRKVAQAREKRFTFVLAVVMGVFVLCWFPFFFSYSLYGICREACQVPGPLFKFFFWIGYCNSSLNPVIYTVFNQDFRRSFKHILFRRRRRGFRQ
Outline: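 LM(tk−) lysates, stable α2A/α2B/α2C transfectants; 25 mM glycylglycine pH 7.6 (RT). [3H]rauwolscine 0.5 nM, equilibrium competition; NSB 10 μM phentolamine. GF/B filtration, cell harvester.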

[2] = pKi alpha-1 1a, [3H]prazosin, cloned human receptor in LM(tk-) cell membranes, SEM and n in lines below
[3] = [3H]nitrendipine, rat cardiac muscle membranes, SEM and n in lines below, read-out: pKi Ca (converted)
[4] = [3H]rauwolscine, LM(tk-) cell line L-α2C, SEM and n in lines below, read-out: pKi alpha-2 2c (converted)
[5] = pKi alpha-1 1a, [3H]prazosin, cloned human α1A receptor, LM(tk−) cell membranes
[6] = [3H]nitrendipine, rat cardiac muscle membrane fragments, L-type calcium channel, read-out: pKi Ca (converted)
[7] = [3H]rauwolscine, human α2C receptor, LM(tk−) cells, read-out: pKi alpha-2 2c (converted)

Row | Structure (SMILES) | Ki ([1]; pKi alpha-1 1a) | Ki (L-type calcium channel; pKi Ca) | Ki (α2C receptor; pKi alpha-2 2c) | Ki (L-type calcium channel; [6]) | also measured
1 | CCOC(=O)C1=C(CC(=O)NCCCN2CCC(c3ccccc3)(c3ccccc3)CC2)NC(C)=C(C(=O)OC)C1c1ccc([N+](=O)[O-])cc1 (stereo not drawn) [Example 89, 3-Ethoxycarbonyl-1,4-dihydro-5-methoxycarbonyl-6-methyl-4-(4-nitro)phenyl-2-(N-(3-(4,4,-diphenylpiperidin-1-yl)propyl)carboxamido)methylpyridine, fumarate salt] | 0.347 µM | 0.813 µM | 0.501 µM | – | –
2 | COC(=O)C1=C(C)NC(C)=C(C(=O)N(C)CCCN2CCC(c3ccccc3)(c3ccccc3)CC2)C1c1ccc([N+](=O)[O-])cc1 (stereo not drawn) [Example 46, hydrochloride hemihydrate] | 0.501 µM | 7.41 µM | 0.245 µM | – | –
3 | CCC1=C(C(=O)NCCCN2CCC(c3ccccc3)(c3ccccc3)CC2)C(c2ccc([N+](=O)[O-])cc2)C(C(=O)OCc2ccccc2)=C(C)N1 (stereo not drawn) [Example 4, 5-Benzyloxycarbonyl-2-ethyl-1,4-dihydro-6-methyl-4-(4-nitrophenyl)-3-(N-(3-(4,4-diphenylpiperidin-1-yl)propyl)carboxamido) pyridine, Hydrochloride Salt, Hydrate] | – | – | – | – | Ki [1, 2]: 0.195 µM; Ki (L-type calcium channel; [3]): 0.977 µM; Ki (α2C receptor; [4]): 0.501 µM
4 | COC(=O)C1=C(C)NC(C)=C(C(=O)NCCCN2CCC(c3ccccc3)(c3ccccc3)CC2)C1c1cc[n+]([O-])cc1 (stereo not drawn) [Example 9, 1,4-Dihydro-3-methoxycarbonyl-2,6-Dimethyl-4-(1-oxido-4-pyridyl)-5-(N-(3-(4,4-diphenylpiperidin-1-yl)propyl)carboxamido)pyridine] | – | – | – | – | Ki [1, 2]: 1.7 µM; Ki (L-type calcium channel; [3]): 19.1 µM; Ki (α2C receptor; [4]): 1.32 µM
5 | COC(=O)C1=C(C)NC(C)=C(C(=O)NCCCN2CCC(c3ccccc3)(c3ccccc3)CC2)C1c1ccoc1 (stereo not drawn) [Example 23, 4-(3-Furyl)-1,4-dihydro-3-methoxycarbonyl-2,6-dimethyl-5-(N-(3-(4,4-diphenylpiperidin-1-yl)propyl)carboxamide)pyridine] | – | – | – | – | Ki [1, 2]: 0.646 µM; Ki (L-type calcium channel; [3]): 0.288 µM; Ki (α2C receptor; [4]): 0.468 µM
6 | CC1=C(C(=O)NCCCN2CCC(c3ccccc3)(c3ccccc3)CC2)C(c2ccc([N+](=O)[O-])cc2)C(C(=O)NC(C)C)=C(C)N1 (stereo not drawn) [Example 156, 1,4-Dihydro-3-(N-isopropyl) carboxamido-2,6-dimethyl-4-(4-nitrophenyl)-5-{N-[3-(^414-diphenylpiperidin-1-yl)propyl]}carboxamidopyridine] | – | – | – | 75.9 µM | Ki [1, 5]: 1.32 µM; Ki (α2C receptor; [7]): 0.219 µM
7 | COC(=O)C1=C(C)NC(C)=C(C(=O)NCCCN2CCC(c3ccccc3)(c3ccccc3)CC2)C1c1ccc(Cl)c(Cl)c1 (stereo not drawn) [Example 24, 4-(3,4-Dichlorophenyl)-1,4-dihydro-3-methoxycarbonyl-2,6-dimethyl-5-(3-(D 44-diphenylpiperidin-1-yl)propylcarboxamido)pyridine] | 0.324 µM | 1.95 µM | 0.158 µM | – | –
8 | CC1=C(C(=O)NCCCN2CCC(c3ccccc3)(c3ccccc3)CC2)C(c2ccc([N+](=O)[O-])cc2)C2=C(CCCC2=O)N1 (stereo not drawn) [Example 40, 1,4,5,6,7,8-Hexahydro-2-methyl-4-(4-nitrophenyl)-5-oxo-3-{N-[3-(4,4-diphenylpiperidin-1-yl)propyl]}carboxamidoquinoline] | – | – | – | – | Ki [1, 2]: 0.55 µM; Ki (L-type calcium channel; [3]): 15.8 µM; Ki (α2C receptor; [4]): 0.977 µM
9 | COC(=O)C1=C(C)NC(c2ccoc2)=C(C(=O)NCCCN2CCC(c3ccccc3)(c3ccccc3)CC2)C1c1ccc([N+](=O)[O-])cc1 (stereo not drawn) [Example 43, 2-(Furan-3-yl)-, 4-dihydro-5-methoxycarbonyl-6-methyl-4-(4-nitrophenyl)-3-(N-(3-(4,4-diphenylpiperidin-1-yl)propyl)carboxamidopyridine, hydrochloride salt] | – | – | – | – | Ki [1, 2]: 0.316 µM; Ki (L-type calcium channel; [3]): 18.6 µM; Ki (α2C receptor; [4]): 0.398 µM
10 | CCC1=C(C(N)=O)C(c2ccc([N+](=O)[O-])cc2)C(C(=O)NCCCN2CCC(C#N)(c3ccccc3)CC2)=C(CC)N1 (single isomer, unassigned; (-)) [(−)-102] | – | – | – | 0.55 µM | Ki [1, 5]: 6.76 µM; Ki (α2C receptor; pKi alpha-2 2c, [3H]rauwolscine, human α2C receptor, LM(tk−) cells): 1.05 µM
11 | CCC1=C(C(=O)NCCCN2CCC(c3ccccc3)(c3ccccc3)CC2)C(c2ccc(N)cc2)C(C(=O)OC)=C(C)N1 (stereo not drawn) [Example 114, 4-(4-Aminophenyl)-2-ethyl-1,4-dihydro-5-methoxycarbonyl-6-methyl-3-(N-(3-(4,4-diphenylpiperidin-1-yl)propyl)carboxamido)-pyridine] | 0.55 µM | 2.88 µM | 0.724 µM | – | –
12 | CCC1=C(C(N)=O)C(c2ccc([N+](=O)[O-])cc2)C(C(=O)NCCCN2CCC(O)(c3ccccc3)CC2)=C(CC)N1 (stereo not drawn) [Example 100, 5-Carboxamido-2,6-diethyl-1,4-dihydro-3-{N-(3-(4-hydroxy-4-phenylpiperidin-1-yl)propyl]}carboxamido-4-(4-nitrophenyl)pyridine hydrochloride hydrate] | – | – | – | 1000 µM | Ki [1, 5]: 4.9 µM; Ki (α2C receptor; [7]): 1.78 µM
13 | COC(=O)C1=C(C)NC(C)=C(C(=O)NCCCN2CCC(c3ccccc3)(c3ccccc3)CC2)C1c1ccc(C#N)cc1 (stereo not drawn) [Example 12, 4-(4-Cyanophenyl)-1,4-dihydro-3-methoxycarbonyl-2,6-dimethyl-5-(N-(3-(4,4-diphenylpiperidin-1-yl)propyl)carboxamido)pyridine] | 0.38 µM | 3.8 µM | 0.871 µM | – | –
14 | CC(C)C1=C(C(N)=O)C(c2ccc([N+](=O)[O-])cc2)C(C(=O)NCCCN2CCC(c3ccccc3)(c3ccccc3)CC2)=C(C(C)C)N1 (stereo not drawn) [Example 127] | – | – | – | 1000 µM | Ki [1, 5]: 0.355 µM; pKi alpha-2 2c (α2C receptor; [3H]rauwolscine, human α2C receptor, LM(tk−) cells): 6.37
15 | COC(=O)C1=C(C)NC(C)=C(C(=O)NCCCN2CCC(c3ccccc3)(c3ccccc3)CC2)C1c1cc(OC)c(OC)c(OC)c1 (stereo not drawn) [Example 27] | 0.38 µM | 0.589 µM | 1.2 µM | – | –
16 | COC(=O)C1=C(C)NC(C)=C(C(=O)NCCCN2CCC(c3ccccc3)(c3ccccc3)CC2)C1c1ccc(OC)cc1 (stereo not drawn) [Example 21, 1,4-Dihydro-3-methoxycarbonyl-4-(4-Methoxyphenyl)-2,6-dimethyl-5-(N-(3-(4,4-diphenylpiperidin-1-yl)propyl)carboxamido)pyridine] | 0.49 µM | 1 µM | 0.776 µM | – | –
17 | COc1cccc(C2C(C(N)=O)=C(C)NC(C)=C2C(=O)NCCCN2CCC(c3ccccc3)(c3ccccc3)CC2)c1 (stereo not drawn) [Example 117, 5-Carboxamido-1,4-dihydro-4-(3-Methoxyphenyl)-2,6-dimethyl-3-(N-(3-(4,4-diphenylpiperidin-1-yl)propyl)carboxamido)-pyridine] | – | – | – | 1000 µM | Ki [1, 5]: 2.09 µM; Ki (α2C receptor; [7]): 0.759 µM
18 | CCC1=C(C(N)=O)C(c2ccc([N+](=O)[O-])cc2)C(C(=O)NCCCN2CCN(c3ccccc3OC)CC2)=C(CC)N1 (stereo not drawn) [Example 125, 5-Carboxamido-2,6-diethyl-1,4-dihydro-3-(N-{3-[4-(2-methoxyphenyl)piperazin-1-yl]propyl})carboxamido-4-(4-nitrophenyl)pyridine] | – | – | – | 38 µM | Ki ([1]; [3H]prazosin, cloned human α1A receptor, LM(tk−) cell membranes, read-out: pKi alpha-1 1a (converted)): 0.0776 µM; Ki (α2C receptor; [7]): 0.0229 µM
